From PubChem BioAssay AID743442 (Broad Institute, 2014)
Calls of active or inactive are those of the source.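 Rule for the calls: active = cell-killing curve, signal falling, whose fitted AC50 is at most twice the top tested dose; inconclusive = flat fit with a moderate signal drop, or a poor fit; inactive = the rest.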

Test system: not listed separately
Assay: HEK293T cell cytotoxicity, dose response, cytotoxicity control, CellTiter-Glo luminescence, dry powder samples, set 14 (AID 743442)
Conditions: HEK293T viability, ATP luminescence (CellTiter-Glo), 72 h; at 12 µM (top of the series)

Row | SMILES | activity change, negative = cytotoxicity
1 | CCN1CCCC1CNC(=O)CSc1c2c(nc3ccc(Cl)cc13)CCCC2 (stereo not given) | -4.32% (inactive)

Same assay, conditions: HEK293T viability, ATP luminescence (CellTiter-Glo), 72 h; at 26 µM (top of the series)

Row | SMILES | activity change, negative = cytotoxicity
2 | CC(Sc1c2c(nc3ccc(Cl)cc13)CCCC2)C(=O)NCc1ccco1 (stereo not given) | -3.71% (inactive)
3 | O=C(CSc1c2c(nc3ccc(Cl)cc13)CCCC2)NCc1cccnc1 | -3.63% (inactive)
4 | CN(C(=O)COc1ccccc1C(=O)Nc1ccccc1)c1ccccc1 | -12.4% (inactive)
5 | CCCCOc1ccc(NC(=O)COc2ccccc2C(=O)NCCOc2ccccc2)cc1 | -30.8% (inactive)
6 | O=C(CSc1c2c(nc3ccccc13)CCCC2)NCc1ccco1 | -6.44% (inactive)
7 | CN(CCNC(=O)CSc1c2c(nc3ccc(Cl)cc13)CCCC2)Cc1ccccc1 | -3.21% (inactive)
8 | O=C(CSc1c2c(nc3ccc(Cl)cc13)CCCC2)NC1CCCC1 | -7.43% (inactive)
9 | COC(=O)CCCN(C)C(=O)c1ccc(OCC(=O)Nc2cccc(OC)c2)cc1 | -4.85% (inactive)
10 | COCCNC(=O)CSc1c2c(nc3ccc(Cl)cc13)CCCC2 | -7.42% (inactive)
11 | O=C(CSc1c2c(nc3ccc(Cl)cc13)CCCC2)NCCN1CCN(Cc2ccccc2)CC1 | -10.3% (inactive)
12 | COc1cc(C(=O)NCCCN(C)C)ccc1OCC(=O)Nc1cccc(C(F)(F)F)c1 | -18.3% (inactive)
13 | COc1ccc(OCCNC(=O)c2ccccc2OCC(=O)Nc2ccc(NC(C)=O)cc2)cc1 | -1.7% (inactive)
14 | COCCN(Cc1ccco1)C(=O)CSc1c2c(nc3cc(Cl)ccc13)CCCC2 | -8.9% (inactive)
15 | O=C(CSc1c2c(nc3ccc(Cl)cc13)CCCC2)N1CCCCC1 | -5.3% (inactive)
16 | O=C(CSc1c2c(nc3ccc(Cl)cc13)CCCC2)NCc1cccs1 | -5.31% (inactive)
17 | O=C(CSc1c2c(nc3ccc(Cl)cc13)CCCC2)N1CCOCC1 | -5.19% (inactive)
18 | COc1ccc(NC(=O)CSc2c3c(nc4ccc(Cl)cc24)CCCC3)cc1 | -8.96% (inactive)
19 | O=C(CSc1c2c(nc3ccc(Cl)cc13)CCCC2)NCCN1CCOCC1 | -9.3% (inactive)
20 | O=C(CSc1c2c(nc3ccc(Cl)cc13)CCCC2)NCc1ccco1 | -6.1% (inactive)
21 | Cc1ccc(CNC(=O)CSc2c3c(nc4cc(Cl)ccc24)CCCC3)o1 | -11.4% (inactive)
22 | CCOC(=O)C1CCN(C(=O)c2ccc(OCC(=O)Nc3ccc(OCC)cc3)c(OC)c2)CC1 | -2.45% (inactive)

Row | SMILES | activity change, negative = cytotoxicity
23 | O=C(CSc1c2c(nc3ccc(Cl)cc13)CCCC2)NC1CC1 | -2.74% (inactive)
24 | Cc1ccc(NC(=O)COc2ccccc2C(=O)NCCN(C)C)cc1 | -1.02% (inactive)
25 | O=C(O)CSc1c2c(nc3cc(C(=O)NCc4cccs4)ccc13)CCCC2 | -5.37% (inactive)
26 | Cc1cccc(CCNC(=O)CSc2c3c(nc4ccc(Cl)cc24)CCCC3)c1 | -5.98% (inactive)
27 | Cc1ccc(CNC(=O)CSc2c3c(nc4ccc(Cl)cc24)CCCC3)o1 | -8.3% (inactive)
28 | O=C(CSc1c2c(nc3ccc(Cl)cc13)CCCC2)NCCCc1ccccc1 | -6.44% (inactive)
29 | O=C(CSc1ccc2ccccc2n1)NCc1ccco1 | -3.39% (inactive)
30 | CCOC(=O)C1CCN(C(=O)c2ccc(OCC(=O)N3CCOCC3)c(OC)c2)CC1 | -7.89% (inactive)
31 | O=C(CSc1c2c(nc3ccc(Cl)cc13)CCCC2)Nc1ccccc1 | -10.7% (inactive)
32 | O=C(COc1ccc(C(=O)NCC2CCCO2)cc1)Nc1cccc(C(F)(F)F)c1 (stereo not given) | -6.65% (inactive)
33 | O=C(CSc1c2c(nc3ccc(Cl)cc13)CCCC2)NCc1ccccn1 | -4.85% (inactive)
34 | CN(CCOc1ccccc1)C(=O)c1ccc(OCC(=O)Nc2cccc(C(F)(F)F)c2)cc1 | -0.662% (inactive)
35 | CN(C(=O)COc1ccc(Cl)cc1C(N)=O)c1ccccc1 | 1.16% (inactive)
36 | Cc1cccc(NC(=O)CSc2c3c(nc4ccc(Cl)cc24)CCCC3)n1 | -9.51% (inactive)
37 | O=C(CSc1c2c(nc3ccc(Cl)cc13)CCCC2)NCc1ccc(F)cc1 | -14.3% (inactive)
38 | CC(C)NC(=O)CSc1c2c(nc3ccc(Cl)cc13)CCCC2 | -3.4% (inactive)
39 | CCCNC(=O)CSc1c2c(nc3ccc(Cl)cc13)CCCC2 | -1.94% (inactive)
40 | O=C(CSc1c2c(nc3ccc(Cl)cc13)CCCC2)N1CCNC1=O | -2.06% (inactive)
41 | O=C(COc1ccccc1C(=O)NCCOc1ccc(Cl)cc1)Nc1cccc(Cl)c1 | -30.7% (inactive)
42 | CN(C(=O)COc1ccccc1C(N)=O)c1ccccc1 | -5.5% (inactive)
43 | O=C(CSc1c2c(nc3ccc(Cl)cc13)CCCC2)NCc1ccc2c(c1)OCO2 | 0.001% (inactive)

Row | SMILES | activity change, negative = cytotoxicity
44 | Cn1c(=O)cc(SCC(=O)NCc2ccco2)c2ccccc21 | 0.641% (inactive)
45 | O=C(COc1ccccc1C(=O)NCc1ccccc1)Nc1ccccc1 | -5.85% (inactive)
46 | O=C(CSc1c2c(nc3ccc(Cl)cc13)CCCC2)NC1CCN(Cc2ccccc2)CC1 | -3.75% (inactive)
47 | Cn1cc(SCC(=O)NCc2ccco2)c2ccccc21 | -10.8% (inactive)
48 | CN(C)c1ccc(NC(=O)COc2ccccc2C(=O)N2CCOCC2)cc1 | -0.871% (inactive)
49 | Cc1ccc2nc(Cl)cc(SCC(=O)NCc3ccco3)c2c1 | -11.1% (inactive)
50 | O=C(CSc1c2c(nc3cc(Cl)ccc13)CCCC2)N(Cc1ccco1)C1CCCC1 | -4.09% (inactive)
51 | CC1(C)CC(NC(=O)c2ccc(OCC(=O)Nc3cccc(C(F)(F)F)c3)cc2)CC(C)(C)N1 | -24.7% (inactive)
52 | O=C(CSc1c2c(nc3ccc(Cl)cc13)CCCC2)NCC1(c2ccccc2)CCCC1 | -8.09% (inactive)
53 | COc1ccc(CNC(=O)CSc2c3c(nc4ccc(Cl)cc24)CCCC3)cc1 | -6.81% (inactive)
54 | CCOC(=O)N1CCC(NC(=O)CSc2c3c(nc4ccc(Cl)cc24)CCCC3)CC1 | -0.517% (inactive)
55 | CCOc1ccc(NC(=O)COc2ccc(C(=O)N3CCC(C(N)=O)CC3)cc2OC)cc1 | -5.36% (inactive)
56 | O=C(COc1ccc(C(=O)N2CCC2)cc1)Nc1cccc(C(F)(F)F)c1 | -6.82% (inactive)
57 | O=C(CSc1c2c(nc3ccc(Cl)cc13)CCCC2)N1CCC(N2CCCCC2)CC1 | -3.26% (inactive)
58 | COc1ccc(N(Cc2cccs2)C(=O)COc2ccccc2C(=O)Nc2ccccc2)cc1 | -7.68% (inactive)
59 | CCN(CC)C(=O)CSc1c2c(nc3ccc(Cl)cc13)CCCC2 | 0.809% (inactive)
60 | Cc1ccc(CNC(=O)CSc2c3c(nc4ccc(Cl)cc24)CCCC3)cc1 | -7.44% (inactive)
61 | O=C(CSc1c2c(nc3ccc(Cl)cc13)CCCC2)NCC1CCCO1 (stereo not given) | -12.2% (inactive)
62 | O=C(COc1ccc(C(=O)N2CCN(C(=O)C3CC3)CC2)cc1)Nc1cccc(C(F)(F)F)c1 | -7.18% (inactive)
63 | O=C(CSc1cccc2cccnc12)NCc1ccco1 | -4.54% (inactive)
64 | NC(=O)C1CCN(C(=O)c2ccc(OCC(=O)Nc3cccc(C(F)(F)F)c3)cc2)CC1 | -5.23% (inactive)

Test system: HEK293T viability, ATP luminescence (CellTiter-Glo), 72 h
Assay: as above
Conditions: not given

Row | SMILES | AC50
65 | COc1cc(CNCCCN2CCOCC2)ccc1OCC(=O)Nc1cccc(C(F)(F)F)c1 | > 52 µM (inactive)
66 | CCN(CC)CCCNC(=O)c1ccc(OCC(=O)Nc2ccccc2C(F)(F)F)c(OC)c1 | > 52 µM (inactive)
67 | O=C(CSc1c2c(nc3ccc(Cl)cc13)CCCC2)N1CCN(Cc2ccccc2)CC1 | > 52 µM (inactive)
68 | O=C(COc1ccc(C(=O)NC2CCCCC2)cc1)Nc1cccc(C(F)(F)F)c1 | > 52 µM (inactive)
69 | CN(C(=O)COc1ccccc1C(=O)NCCc1ccccc1)c1ccccc1 | > 52 µM (inactive)
70 | O=C(CSc1c2c(nc3ccc(Cl)cc13)CCCC2)Nc1ccc(Cl)cc1 | > 52 µM (inactive)
